# According to US20240425519A1, “NOVEL SPIROCYCLIC COMPOUNDS AS KLHDC2 LIGANDS” (University of Washington, priority 2021, published 2024):
# Target: KLHDC2 (Homo sapiens (Human), UniProt Q9Y2U9)
# Assay: AlphaScreen competition assay for ligand binding to KLHDC2 (GST-KLHDC2 vs biotinylated 12 aa SelK degron peptide)
# Details: formula (II) compounds; 0.12 nM GST-KLHDC2, 1.7 nM biotinylated 12 aa SelK peptide; triplicate; read-out: KLHDC2 binding activities IC50
# Excerpt: The following is a description of an assay for evaluating ligand binding to KLHDC2.
# Amplified Luminescence Proximity Homogenous Assay (AlphaScreen) was used to monitor protein-protein interaction of two tagged components that are immobilized on beads. One component was GST-KLHDC2 (E3) and the other one was biotinylated-SelK peptide with a length of 12 amino acids (Substrate peptide). When the two components bind, they bring the Alpha beads in close proximity to each other that results in a luminescent signal.
# AlphaScreen assays for determining and measuring protein-protein interactions were performed using EnSpire reader (PerkinElmer). GST-tagged KLHDC2 was attached to anti-GST AlphaScreen acceptor beads. Synthetic biotinylated 12 aa SelK degron peptide (Bio-Synthesis, Inc.) was immobilized to streptavidin-coated AlphaScreen donor beads. The donor and acceptor beads were brought into proximity by the interactions between the SelK peptide and KLHDC2. Excitation of the donor beads by a laser beam of 680 nm promotes the formation of singlet oxygen. When an acceptor bead is in close proximity, the singlet oxygen reacts with thioxene derivatives in the acceptor beads and causes the emission of 520-620 nm photons, which are detected as the binding signal. If the beads are not in close proximity to each other, the oxygen will return to its ground state and the acceptor beads will not emit light. Competition assays were performed in the presence of representative binding compounds, which were titrated at various concentrations.
# The experiments were conducted with 0.12 nM of GST-KLHDC2 and 1.7 nM biotinylated 12 aa SelK peptide in the presence of 5 μg/ml donor and acceptor beads in a buffer of 25 mM HEPES, pH 7.5, 100 mM NaCl, 1 mM TCEP, 0.1% Tween-20, and 0.05 mg/ml Bovine Serum Albumin. The concentrations of the compounds used in competition assays ranged from 0.1 nM to 25 mM. The experiments were done in triplicate. IC50 values were determined using non-linear curve fitting of the dose response curves generated with Prism 4 (GraphPad).
# Sequence of KLHDC2 (Q9Y2U9 whole entry): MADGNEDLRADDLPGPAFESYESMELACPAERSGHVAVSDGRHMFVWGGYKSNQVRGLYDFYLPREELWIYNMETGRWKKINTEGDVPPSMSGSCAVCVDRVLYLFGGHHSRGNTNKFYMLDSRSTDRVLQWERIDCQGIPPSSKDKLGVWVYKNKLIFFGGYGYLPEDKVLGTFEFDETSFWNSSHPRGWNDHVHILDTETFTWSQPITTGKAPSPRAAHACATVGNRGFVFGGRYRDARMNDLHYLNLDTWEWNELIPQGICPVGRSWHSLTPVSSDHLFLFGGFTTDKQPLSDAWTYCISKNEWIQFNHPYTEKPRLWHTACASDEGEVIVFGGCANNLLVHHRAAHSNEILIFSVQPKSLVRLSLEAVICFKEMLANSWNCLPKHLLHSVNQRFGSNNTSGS
row,SMILES,IC50 [µM]
1,"CC(=O)N1CCC(C(=O)N2CCN(C)C3(CCC(=O)N(CC(=O)O)CC3)C2)CC1 (stereo not shown) [AC1068, 2-(4-(1-acetylpiperidine-4-carbonyl)-1-methyl-10-oxo-1,4,9-triazaspiro-[5.6]dodecan-9-yl)acetic acid]",191
2,"CC(=O)N1CCC[C@@H]1C(=O)N1CCN(C)C2(CCC(=O)N(CC(=O)O)CC2)C1 (stereo partly drawn) [AC1072, 2-(4-(acetyl-D-prolyl)-1-methyl-10-oxo-1,4,9-triazaspiro[5.6]dodecan-9-yl)acetic acid]",12.5
3,"CN1CCN(C(=O)c2cnn(-c3ccccc3)c2)CC12CCC(=O)N(CC(=O)O)CC2 (stereo not shown) [AC1064, 2-(1-methyl-10-oxo-4-(1-phenyl-1H-pyrazole-4-carbonyl)-1,4,9-triaza-spiro[5.6]dodecan-9-yl)-acetic acid]",148
4,"CC(C(=O)N1CCN(C)C2(CCC(=O)N(CC(=O)O)CC2)C1)c1ccc(O)cc1 (stereo not shown) [AC1062, 2-(4-(2-(4-hydroxyphen-yl)propanoyl)-1-methyl-10-oxo-1,4,9-triazaspiro-[5.6]dodecan-9-yl)acetic acid]",19.8
5,"CN1CCN(C(=O)C2CC2)CC12CCC(=O)N(CC(=O)O)CC2 (stereo not shown) [AC1052, 2-(4-(cyclopropanecar-bonyl)-1-methyl-10-oxo-1,4,9-triazaspiro[5.6]-dodecan-9-yl)acetic acid]",100
6,"CN1CCN(C(=O)C2CN(Cc3ccccn3)C2)CC12CCC(=O)N(CC(=O)O)CC2 (stereo not shown) [AC1069, 2-(1-methyl-10-oxo-4-(1-(pyridin-2-ylmethyl)azeti-dine-3-carbonyl)-1,4,9-triazaspiro[5.6]dodecan-9-yl)acetic acid]",4.6
7,"CN1CCN(C(=O)Nc2ccccc2)CC12CCC(=O)N(CC(=O)O)CC2 (stereo not shown) [AC1050, 2-(1-methyl-10-oxo-4-(phenylcarbamoyl)-1,4,9-triazaspiro[5.6]dodecan-9-yl)acetic acid]",33.6
8,"CN1CCN(C(=O)[C@@H]2CCN2C(=O)OC(C)(C)C)CC12CCC(=O)N(CC(=O)O)CC2 (stereo partly drawn) [AC1065, 2-(4-((S)-1-(tert-butoxy-carbonyl)azetidine-2-carbonyl)-1-methyl-10-oxo-1,4,9-triazaspiro[5.6]-dodecan-9-yl)acetic acid]",496
9,"CN1CCN(C(=O)C(C)(C)Oc2ccccc2)CC12CCC(=O)N(CC(=O)O)CC2 (stereo not shown) [AC1046, 2-(1-methyl-4-(2-methyl-2-phenoxypropanoyl)-10-oxo-1,4,9-triazaspiro[5.6]-dodecan-9-yl)acetic acid]",202
10,"CN1CCN(C(=O)C2(c3ccc(F)cc3)CC2)CC12CCC(=O)N(CC(=O)O)CC2 (stereo not shown) [AC1045, 2-(4-(1-(4-fluorophenyl)-cyclopropane-1-carbon-yl)-1-methyl-10-oxo-1,4,9-triazaspiro[5.6]-dodecan-9-yl)acetic acid]",348
11,"CN1CCN(C(=O)NC2CCC2)CC12CCC(=O)N(CC(=O)O)CC2 (stereo not shown) [AC1049, 2-(4-(cyclobutylcarbam-oyl)-1-methyl-10-oxo-1,4,9-triazaspiro[5.6]-dodecan-9-yl)acetic acid]",91.7
12,"CN1CCN(C(=O)NCc2ccccc2)CC12CCC(=O)N(CC(=O)O)CC2 (stereo not shown) [AC1051, 2-(4-(benzylcarbamoyl)-1-methyl-10-oxo-1,4,9-triazaspiro[5.6]dodecan-9-yl)acetic acid]",45.9
13,"CC(Cc1ccccc1)C(=O)N1CCN(C)C2(CCC(=O)N(CC(=O)O)CC2)C1 (stereo not shown) [AC1033, 2-(1-methyl-4-(2-methyl-3-phenylpropanoyl)-10-oxo-1,4,9-triazaspiro[5.6]-dodecan-9-yl)acetic acid]",56.4
14,"COC(C)(C(=O)N1CCN(C)C2(CCC(=O)N(CC(=O)O)CC2)C1)c1ccccc1 (stereo not shown) [AC1063, 2-(4-(2-methoxy-2-phen-ylpropanoyl)-1-methyl-10-oxo-1,4,9-triazaspiro-[5.6]dodecan-9-yl)acetic acid]",131
15,"CN1CCN(C(=O)C2CC2c2ccccc2)CC12CCC(=O)N(CC(=O)O)CC2 (stereo not shown) [AC1032, 2-(1-methyl-10-oxo-4-(2-phenylcyclopropane-1-carbonyl)-1,4,9-triaza-spiro[5.6]dodecan-9-yl)-acetic acid]",32
16,"CN1CCN(C(=O)C2(O)CCCC2)CC12CCC(=O)N(CC(=O)O)CC2 (stereo not shown) [AC1048, 2-(4-(1-hydroxycyclopen-tane-1-carbonyl)-1-meth-yl-10-oxo-1,4,9-triaza-spiro[5.6]dodecan-9-yl)-acetic acid]",116
17,"CN1CCN(C(=O)[C@H]2CCCN2C(=O)c2ccccc2)CC12CCC(=O)N(CC(=O)O)CC2 (stereo partly drawn) [AC1071, 2-(4-(benzoyl-D-prolyl)-1-methyl-10-oxo-1,4,9-triazaspiro[5.6]dodecan-9-yl)acetic acid]",45.4
18,"CN1CCN(C(=O)C2CC(F)(F)C2)CC12CCC(=O)N(CC(=O)O)CC2 (stereo not shown) [AC1034, 2-(4-(3,3-difluorocyclo-butane-1-carbonyl)-1-methyl-10-oxo-1,4,9-triazaspiro[5.6]dodecan-9-yl)acetic acid]",295
19,"CN1CCN(C(=O)[C@H]2C[C@@H](NC(=O)OC(C)(C)C)C2)CC12CCC(=O)N(CC(=O)O)CC2 (stereo partly drawn) [AC1047, 2-(4-((1,3-trans)-3-((tert-butoxycarbonyl)amino)-cyclobutane-1-carbonyl)-1-methyl-10-oxo-1,4,9-triazaspiro[5.6]dodecan-9-yl)acetic acid]",493
20,"CN1CCN(C(=O)C2CC(=O)N(Cc3ccccc3)C2)CC12CCC(=O)N(CC(=O)O)CC2 (stereo not shown) [AC1066, 2-(4-(1-benzyl-5-oxo-pyrrolidine-3-carbonyl)-1-methyl-10-oxo-1,4,9-triazaspiro[5.6]dodecan-9-yl)acetic acid]",65.9

# Same assay, conditions: formula (III) compounds; 0.12 nM GST-KLHDC2, 1.7 nM biotinylated 12 aa SelK peptide; triplicate; read-out: KLHDC2 binding activities IC50
row,SMILES,IC50 [µM]
1,"Cc1nc(N)nc(N2CCN(C)C3(CCC(=O)N(CC(=O)O)CC3)C2)c1Cl (stereo not shown) [AC1031, 2-(4-(2-amino-5-chloro-6-methylpyrimidin-4-yl)-1-methyl-10-oxo-1,4,9-triaza-spiro[5.6]dodecan-9-yl)acetic acid]",389
2,"CN1CCN(c2nccc(C(=O)O)n2)CC12CCC(=O)N(CC(=O)O)CC2 (stereo not shown) [AC1035, 2-(9-(carboxymethyl)-1-meth-yl-10-oxo-1,4,9-triazaspiro-[5.6]dodecan-4-yl)pyrimidine-4-carboxylic acid]",123
3,"CC(=O)N1CCc2nc(N3CCN(C)C4(CCC(=O)N(CC(=O)O)CC4)C3)ncc2C1 (stereo not shown) [AC1030, 2-(4-(6-acetyl-5,6,7,8-tetra-hydropyrido[4,3-d]pyrimidin-2-yl)-1-methyl-10-oxo-1,4,9-triazaspiro[5.6]dodecan-9-yl)-acetic acid]",445

# Same assay, conditions: formula (IV) compounds; 0.12 nM GST-KLHDC2, 1.7 nM biotinylated 12 aa SelK peptide; triplicate; read-out: KLHDC2 binding activities IC50
row,SMILES,IC50 [µM]
1,"O=C(O)CN1CCC2(CCCN(c3ccnc(N4CCC(O)C4)n3)C2)OCC1=O (stereo not shown) [AC935, 2-(2-(2-(3-hydroxypyrrolidin-1-yl)pyrimidin-4-yl)-9-oxo-7-oxa-2,10-diazaspiro[5.6]-dodecan-10-yl)acetic acid]",47.5
2,"CC(C(=O)N1CCCC2(CCN(CC(=O)O)C(=O)CO2)C1)c1ccccc1 (stereo not shown) [AC890, 2-(9-oxo-2-(2-phenylpropano-yl)-7-oxa-2,10-diazaspiro[5.6]-dodecan-10-yl)acetic acid]",50
3,"C[C@H](C(=O)N1CCC[C@]2(CCN(CC(=O)O)C(=O)CO2)C1)c1ccccc1 [AC0978, 2-((S)-9-oxo-2-((S)-2-phenyl-propanoyl)-7-oxa-2,10-diaza-spiro[5.6]dodecan-10-yl)acetic acid]",22.1
4,"C[C@@H](C(=O)N1CCCC2(CCN(CC(=O)O)C(=O)CO2)C1)c1ccccc1 (stereo partly drawn) [AC1028, 2-(9-oxo-2-((R)-2-phenylpro-panoyl)-7-oxa-2,10-diaza-spiro[5.6]dodecan-10-yl)acetic acid]",39.6
5,"Cc1nccc(N2CCCC3(CCN(CC(=O)O)C(=O)CO3)C2)n1 (stereo not shown) [AC947, 2-(2-(2-methylpyrimidin-4-yl)-9-oxo-7-oxa-2,10-diazaspiro-[5.6]dodecan-10-yl)acetic acid]",1390
6,"O=C(O)CN1CCC2(CCCN(C(=O)C3CCC3)C2)OCC1=O (stereo not shown) [AC904, 2-(2-(cyclobutanecarbonyl)-9-oxo-7-oxa-2,10-diazaspiro-[5.6]dodecan-10-yl)acetic acid]",51
7,"C[C@H](C(=O)N1CCC[C@@]2(CCN(CC(=O)O)C(=O)CO2)C1)c1ccccc1 [AC0979, 2-((R)-9-oxo-2-((S)-2-phenyl-propanoyl)-7-oxa-2,10-diaza-spiro[5.6]dodecan-10-yl)acetic acid]",63.7
8,"O=C(O)CN1CCC2(CCCN(C(=O)C3CCCC3)C2)OCC1=O (stereo not shown) [AC903, 2-(2-(cyclopentanecarbonyl)-9-oxo-7-oxa-2,10-diazaspiro-[5.6]dodecan-10-yl)acetic acid]",40.1
